The text below walks through data of US20190030113A1, “DIPEPTIDYL ALDEHYDES FOR THE TREATMENT AND/OR PREVENTION OF PARASITIC DISEASES” (AXIAVA PHARMA UG, priority 2017, published 2019).

Residues, ends and D or L forms follow the SMILES beside them. *: point of attachment. Cbz = O=C(OCc1ccccc1)*; tBu = CC(C)(C)*

One series concerns the target cathepsin L (Homo sapiens, UniProt P07711). The following applies: cited from earlier work.
A further series deals with Eimeria spp. The following applies: 20 mg/kg body weight, up to 14 days before the experimental infection; on average; cited from earlier work.
For another series, the system named is Histomonas meleagridis. To be noted: 300-400 ppm, cited from earlier work.
The subject of series [1] is T. gallinae cultured from the Vienna strain. Briefly: in vivo efficacy study in pigeons inoculated with T. gallinae. Further details: species or system Columba livia forma domestica. To be noted: 5 mg/kg oral twice daily during 4 days, 15 birds per group. On the procedure: (§1) Thirty Columba livia forma domestica of both gender (2 groups of fifteen birds) were inoculated per os via a syringe with 2 million T. gallinae cultured from the Vienna strain. Initial age of the pigeons was 4-5 months. Two days later the pigeons were treated with twice daily oral administration of 5 mg/kg of Z—FY—CHO or the placebo (vehicle alone) during 4 days. The formulation was composed of 50 mg of the agent added to 1.0 ml 96 g/v % ethanol and 4 gram of prewarmed Solutol HS15. The formulation was stirred to a clear solution, then it was topped up with prewarmed distilled water to a volume of 10 ml. From this solution 0.1 ml per 100 g body weight was administered (=5 mg/kg). […] Regurgitation has been detected first in one pigeon from the placebo group in the evening on day of infection. […] No gross pathological findings in the esophagus or crop were detected during the necropsy. However, heterophilic infiltrates in the mucosa as well as in the submucous tissue and lymphocytes and plasmacells in the submucous tissue have been detected histopathologically in total eight pigeons (27%). Catarrhal erosive esophagitis and ingluvitis was significant more often detected in pigeons from the placebo group (7 of 8 pigeons with inflammatory reaction of the esophagus and crop, 88%; p=0.018).

The test system of the next series is coccidiae. Briefly: coccidiosis finding in the in vivo pigeon study. Further details: species or system Columba livia forma domestica. The following applies: 5 mg/kg oral twice daily during 4 days; 3 of 15 placebo pigeons still showed coccidiae. On the procedure: as §1
Series [2] concerns T. gallinae. Briefly: in vitro growth of T. gallinae (total trophozoite number). Type of series: cell-based, Trichomonas gallinae. To be noted: 10,000 nM, after 24 hours of treatment, normalized to 1% DMSO-treated group NCA. On the procedure:
(§2) Z—FY—CHO was tested in an in vitro assay on growth and viability of two strains of T. gallinae (Vienna strain and ATCC 30095). T. gallinae is cultured in vitro under axenic conditions. Both strains are cultured in ATCC® Medium 2154 (LYI Entamoeba medium) which is prepared according to the recommendations of ATCC. Culture conditions are anaerobic at 37° C. Cultures are kept in sterile 50 ml plastic tubes in a total volume of 10 ml. T. gallinae cultures are passaged regularly (in two-day intervals) in advance to maintain the strains for the study.
Quantification of total parasite number: The total parasite number is calculated separately for each tube. Therefore, the contents of each tube are centrifuged and the sediment resuspended in a given volume. A dilution of a subsample is being examined in a Neubauer counting chamber, the total number of parasites counted and the number of parasites in the respective tube be calculated.
Each treatment group consists of 3 identical replicates, i.e. 3 tubes with identical treatment (triplicate).
(§3) Five concentrations of each substance were tested against T. gallinae, namely 1 nM, 10 nM, 100 nM, 1000 nM, and 10000 nM. The total exposure time of the test compounds for the efficacy assay was 72 hours; media were renewed in intervals of 24 hours. Efficacy was measured after 24 hours of incubation.

In series [3] the test system is T. gallinae. Briefly: in vitro viability of T. gallinae (viable-to-dead ratio, DAPI staining). The class given is cell-based, Trichomonas gallinae. The following applies: different concentrations; after 24 hours of treatment. Here is the method:
as §2, §3
The total parasite number is calculated before a subsample is subject to counting of viable and dead parasites. For counting, parasites are stained by DAPI nucleus staining for differentiation of viable and dead parasites.

A short description of series [4]: side effects in the in vivo pigeon study. To be noted: 10 mg/kg per day oral, 4 days, pigeons. Also noted: species or system Columba livia forma domestica. On the procedure: as §1

Chain of cathepsin L (P07711 114-333, species assumed): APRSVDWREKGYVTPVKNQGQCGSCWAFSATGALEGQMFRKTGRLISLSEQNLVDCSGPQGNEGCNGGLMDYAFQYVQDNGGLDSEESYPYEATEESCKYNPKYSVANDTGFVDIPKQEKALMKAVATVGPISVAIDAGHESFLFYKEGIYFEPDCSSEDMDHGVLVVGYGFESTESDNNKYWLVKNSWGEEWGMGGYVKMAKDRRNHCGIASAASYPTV

Broadly, the IC50 is the point on the concentration scale where inhibition reaches its midpoint. For the molecule `C[C@@H](C=O)NC(=O)[C@H](Cc1ccccc1)NC(=O)OCc1ccccc1` [d, Z-Phe-Ala-CHO], the IC50 at cathepsin L is 15.5 nM.

In the case of `Cc1cc(-n2c(=O)[nH]c(=O)n(C)c2=O)ccc1Oc1ccc(SC(F)(F)F)cc1` [toltrazuril], the “reduction in the number of oocysts in individual fecal samples” value in the series on Eimeria spp. is reported as “more than 97%”.

`O=C[C@H](Cc1ccccc1)NC(=O)[C@H](Cc1ccccc1)NC(=O)OCc1ccccc1` [a, Z-Phe-Phe-CHO] (Cbz-Phe-Phe-aldehyde): the IC50 at cathepsin L was 0.74 nM.

As to `CC1CS(=O)(=O)CCN1/N=C/c1ccc([N+](=O)[O-])o1` (stereo not drawn) [Nifurtimox], the tolerability entry in the series on Histomonas meleagridis (turkeys) is on record as “tolerated by turkeys”. In the series with Histomonas meleagridis, the “efficacy (antiprotozoal)” value is listed as “effective”.

Turning to `CC(C)C[C@@H](C=O)NC(=O)[C@H](Cc1ccccc1)NC(=O)OCc1ccccc1` [c, Z-Phe-Leu-CHO] (Cbz-Phe-Leu-aldehyde), the IC50 at cathepsin L is 0.78 nM.

In the case of `COc1ccc(C[C@@H](C=O)NC(=O)[C@H](Cc2ccccc2)NC(=O)OCc2ccccc2)cc1` [e, Z-Phe-Tyr(Me)-CHO] (Cbz-Phe-Tyr(Me)-aldehyde), on cathepsin L, the IC50 is 2.95 nM.

Take `O=C[C@H](Cc1ccc(O)cc1)NC(=O)[C@H](Cc1ccccc1)NC(=O)OCc1ccccc1` [b, N-(benzyloxycarbonyl)-L-phenylalanyl-L-tyrosinal] (Cbz-Phe-Tyr-aldehyde): the pigeons with regurgitation result in series [1] (placebo 7 of 15, p=0.018) is “one”. The “pigeons with catarrhal erosive esophagitis and ingluvitis (histopathology)” value in series [1] (placebo 7 pigeons, p=0.018) is recorded as “one”. Besides, the “detection of coccidiae after treatment” value in the series with coccidiae is on record as “no coccidiae could be detected”. Further, the “trophozoite number relative to group NCA (control group)” value amounted to 26.3% in the series with T. gallinae [2] (ATCC 30095 strain) and 24.0% in the series on T. gallinae [2] (Vienna strain). Besides, the “viable-to-dead ratios compared to the control group NCA” value in the series on T. gallinae [3] is given as “Markedly lower”. The side effects result in series [4] is “no obvious and/or statistically significant side effects”.

With `CC(C)(C)Oc1ccc(CC(C=O)NC(=O)C(Cc2ccccc2)NC(=O)OCc2ccccc2)cc1` (stereo not drawn) [f, Z-Phe-Tyr(Bu)-CHO] (Cbz-Phe-Tyr(tBu)-aldehyde; configuration not given here), the IC50 on cathepsin L was 6.96 nM.
